Data taken from BindingDB's records for patent US12128018 (Kdac Therapeutics, 2024).

What was measured:
Test in all cases: Inhibition of Histone Deacetylase Enzymatic Activity
Histone deacetylase 4 = Histone deacetylase 4 (Homo sapiens, UniProt P56524)
Description: (§1) Its final concentration in the assay for HDACs 1,2,3,6 is 2 μM.Substrate B was prepared as 2 mM in 100% DMSO. Its final concentration in the assay for HDACs 4,5,7,8,9 is 2 μM.LBH was used as quench inhibitor to stop the reaction at the end point.

Histone deacetylase 5 = Histone deacetylase 5 (Homo sapiens, UniProt Q9UQL6)
Description: as §1

Histone deacetylase 6 = biological target: T1, Histone deacetylase 6 (Homo sapiens, UniProt Q9UBN7)
T1 sequence (Q9UBN7 whole entry): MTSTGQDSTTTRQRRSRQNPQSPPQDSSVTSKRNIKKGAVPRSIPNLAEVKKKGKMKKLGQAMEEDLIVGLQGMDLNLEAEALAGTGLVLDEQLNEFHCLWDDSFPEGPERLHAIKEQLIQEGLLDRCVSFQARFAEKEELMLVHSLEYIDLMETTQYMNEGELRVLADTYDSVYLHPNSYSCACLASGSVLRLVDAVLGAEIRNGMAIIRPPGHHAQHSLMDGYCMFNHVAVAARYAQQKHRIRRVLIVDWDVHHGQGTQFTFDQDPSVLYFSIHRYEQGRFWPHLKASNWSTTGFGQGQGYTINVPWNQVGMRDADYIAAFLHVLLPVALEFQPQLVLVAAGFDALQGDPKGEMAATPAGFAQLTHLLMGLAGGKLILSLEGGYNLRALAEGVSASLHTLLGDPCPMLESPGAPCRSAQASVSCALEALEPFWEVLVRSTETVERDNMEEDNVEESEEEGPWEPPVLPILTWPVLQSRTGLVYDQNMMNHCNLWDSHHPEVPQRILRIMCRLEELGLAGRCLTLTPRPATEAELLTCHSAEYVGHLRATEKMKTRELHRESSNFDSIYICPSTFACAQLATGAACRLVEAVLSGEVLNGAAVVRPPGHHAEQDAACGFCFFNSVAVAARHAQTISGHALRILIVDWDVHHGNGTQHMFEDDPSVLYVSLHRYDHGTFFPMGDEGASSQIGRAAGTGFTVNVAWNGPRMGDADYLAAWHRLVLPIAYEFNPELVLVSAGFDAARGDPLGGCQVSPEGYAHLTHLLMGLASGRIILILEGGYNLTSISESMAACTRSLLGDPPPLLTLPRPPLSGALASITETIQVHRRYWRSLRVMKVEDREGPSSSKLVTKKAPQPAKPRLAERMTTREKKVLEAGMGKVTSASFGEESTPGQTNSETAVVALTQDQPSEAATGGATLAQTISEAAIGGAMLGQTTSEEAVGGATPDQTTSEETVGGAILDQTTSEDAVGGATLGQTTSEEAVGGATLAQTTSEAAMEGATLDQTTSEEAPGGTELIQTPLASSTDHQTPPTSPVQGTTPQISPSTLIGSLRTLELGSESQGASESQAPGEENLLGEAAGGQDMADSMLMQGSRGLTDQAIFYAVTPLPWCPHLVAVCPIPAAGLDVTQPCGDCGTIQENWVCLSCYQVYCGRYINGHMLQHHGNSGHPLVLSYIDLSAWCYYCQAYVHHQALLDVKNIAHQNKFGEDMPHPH
Description: as §1

Histone deacetylase 7 = biological target: T2, Histone deacetylase 7 (Homo sapiens, UniProt Q8WUI4)
T2 sequence (Q8WUI4 whole entry): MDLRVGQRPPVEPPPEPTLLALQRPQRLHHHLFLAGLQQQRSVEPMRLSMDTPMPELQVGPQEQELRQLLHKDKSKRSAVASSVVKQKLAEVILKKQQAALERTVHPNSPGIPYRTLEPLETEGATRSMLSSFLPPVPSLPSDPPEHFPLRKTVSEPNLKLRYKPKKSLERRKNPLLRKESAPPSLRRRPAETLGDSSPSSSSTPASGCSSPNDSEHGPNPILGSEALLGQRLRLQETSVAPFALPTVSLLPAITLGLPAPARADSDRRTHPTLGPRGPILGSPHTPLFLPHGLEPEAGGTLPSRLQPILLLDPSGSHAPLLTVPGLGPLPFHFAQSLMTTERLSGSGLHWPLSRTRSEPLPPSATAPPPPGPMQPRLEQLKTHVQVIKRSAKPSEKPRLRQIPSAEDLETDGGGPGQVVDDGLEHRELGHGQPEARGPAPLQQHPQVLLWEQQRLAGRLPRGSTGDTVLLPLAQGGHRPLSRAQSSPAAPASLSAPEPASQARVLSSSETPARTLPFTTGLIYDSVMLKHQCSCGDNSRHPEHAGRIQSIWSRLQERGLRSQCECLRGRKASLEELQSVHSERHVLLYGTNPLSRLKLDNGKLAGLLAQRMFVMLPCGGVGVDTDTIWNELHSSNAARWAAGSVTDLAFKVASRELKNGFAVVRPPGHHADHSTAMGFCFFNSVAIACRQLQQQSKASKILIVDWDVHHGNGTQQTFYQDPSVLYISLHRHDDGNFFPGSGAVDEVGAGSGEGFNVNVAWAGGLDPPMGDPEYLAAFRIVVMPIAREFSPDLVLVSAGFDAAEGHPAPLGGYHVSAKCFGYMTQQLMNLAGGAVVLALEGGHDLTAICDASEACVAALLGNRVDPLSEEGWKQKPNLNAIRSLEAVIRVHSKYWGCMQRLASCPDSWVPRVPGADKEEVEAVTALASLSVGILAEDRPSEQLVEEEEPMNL
Description: as §1

Histone deacetylase 8 = biological target: T3, Histone deacetylase 8 (Homo sapiens, UniProt Q9BY41)
T3 sequence (Q9BY41 whole entry): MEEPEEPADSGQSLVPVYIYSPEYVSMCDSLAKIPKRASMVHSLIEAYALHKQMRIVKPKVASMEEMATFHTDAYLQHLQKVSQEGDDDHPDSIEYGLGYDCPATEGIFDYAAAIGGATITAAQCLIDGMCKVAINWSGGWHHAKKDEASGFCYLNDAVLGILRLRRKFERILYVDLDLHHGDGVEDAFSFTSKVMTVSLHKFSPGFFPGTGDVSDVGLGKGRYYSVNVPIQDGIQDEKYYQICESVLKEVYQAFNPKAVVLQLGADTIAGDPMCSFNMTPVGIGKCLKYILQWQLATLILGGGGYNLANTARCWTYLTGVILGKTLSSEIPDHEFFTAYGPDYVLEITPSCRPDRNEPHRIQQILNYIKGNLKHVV
Description: as §1

Histone deacetylase 9 = Histone deacetylase 9 (Homo sapiens, UniProt Q9UKV0)
Description: as §1

Measured: IC50

Sequence of Histone deacetylase 5 (Q9UQL6 whole entry): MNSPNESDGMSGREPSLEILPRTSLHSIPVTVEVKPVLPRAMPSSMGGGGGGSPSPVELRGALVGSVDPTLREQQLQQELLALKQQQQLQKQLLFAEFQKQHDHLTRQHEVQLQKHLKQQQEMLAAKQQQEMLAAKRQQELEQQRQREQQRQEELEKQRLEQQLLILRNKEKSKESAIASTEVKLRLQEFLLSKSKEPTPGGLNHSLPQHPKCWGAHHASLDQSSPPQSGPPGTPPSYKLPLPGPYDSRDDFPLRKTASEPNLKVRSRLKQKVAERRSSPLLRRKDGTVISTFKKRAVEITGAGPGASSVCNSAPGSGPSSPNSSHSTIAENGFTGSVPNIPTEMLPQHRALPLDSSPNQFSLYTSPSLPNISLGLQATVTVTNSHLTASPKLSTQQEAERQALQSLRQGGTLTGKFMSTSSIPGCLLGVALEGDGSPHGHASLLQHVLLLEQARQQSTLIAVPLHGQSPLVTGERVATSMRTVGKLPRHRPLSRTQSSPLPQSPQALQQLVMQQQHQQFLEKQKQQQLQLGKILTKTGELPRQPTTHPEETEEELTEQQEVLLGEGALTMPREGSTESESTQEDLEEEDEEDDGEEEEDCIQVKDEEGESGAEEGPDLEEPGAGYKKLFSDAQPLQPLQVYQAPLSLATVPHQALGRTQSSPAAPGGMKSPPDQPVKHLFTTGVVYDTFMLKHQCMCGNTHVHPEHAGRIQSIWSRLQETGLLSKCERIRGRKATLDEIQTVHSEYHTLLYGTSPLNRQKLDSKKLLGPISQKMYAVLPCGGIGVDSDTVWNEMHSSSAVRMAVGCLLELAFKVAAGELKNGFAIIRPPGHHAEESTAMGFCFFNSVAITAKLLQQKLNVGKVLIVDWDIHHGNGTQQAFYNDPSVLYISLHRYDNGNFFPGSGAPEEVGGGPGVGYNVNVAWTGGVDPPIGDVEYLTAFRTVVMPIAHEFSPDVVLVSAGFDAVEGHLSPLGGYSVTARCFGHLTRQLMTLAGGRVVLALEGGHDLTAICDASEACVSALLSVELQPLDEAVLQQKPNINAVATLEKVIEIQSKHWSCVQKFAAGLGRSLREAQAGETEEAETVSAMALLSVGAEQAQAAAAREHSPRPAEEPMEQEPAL
Sequence of Histone deacetylase 9 (Q9UKV0 whole entry): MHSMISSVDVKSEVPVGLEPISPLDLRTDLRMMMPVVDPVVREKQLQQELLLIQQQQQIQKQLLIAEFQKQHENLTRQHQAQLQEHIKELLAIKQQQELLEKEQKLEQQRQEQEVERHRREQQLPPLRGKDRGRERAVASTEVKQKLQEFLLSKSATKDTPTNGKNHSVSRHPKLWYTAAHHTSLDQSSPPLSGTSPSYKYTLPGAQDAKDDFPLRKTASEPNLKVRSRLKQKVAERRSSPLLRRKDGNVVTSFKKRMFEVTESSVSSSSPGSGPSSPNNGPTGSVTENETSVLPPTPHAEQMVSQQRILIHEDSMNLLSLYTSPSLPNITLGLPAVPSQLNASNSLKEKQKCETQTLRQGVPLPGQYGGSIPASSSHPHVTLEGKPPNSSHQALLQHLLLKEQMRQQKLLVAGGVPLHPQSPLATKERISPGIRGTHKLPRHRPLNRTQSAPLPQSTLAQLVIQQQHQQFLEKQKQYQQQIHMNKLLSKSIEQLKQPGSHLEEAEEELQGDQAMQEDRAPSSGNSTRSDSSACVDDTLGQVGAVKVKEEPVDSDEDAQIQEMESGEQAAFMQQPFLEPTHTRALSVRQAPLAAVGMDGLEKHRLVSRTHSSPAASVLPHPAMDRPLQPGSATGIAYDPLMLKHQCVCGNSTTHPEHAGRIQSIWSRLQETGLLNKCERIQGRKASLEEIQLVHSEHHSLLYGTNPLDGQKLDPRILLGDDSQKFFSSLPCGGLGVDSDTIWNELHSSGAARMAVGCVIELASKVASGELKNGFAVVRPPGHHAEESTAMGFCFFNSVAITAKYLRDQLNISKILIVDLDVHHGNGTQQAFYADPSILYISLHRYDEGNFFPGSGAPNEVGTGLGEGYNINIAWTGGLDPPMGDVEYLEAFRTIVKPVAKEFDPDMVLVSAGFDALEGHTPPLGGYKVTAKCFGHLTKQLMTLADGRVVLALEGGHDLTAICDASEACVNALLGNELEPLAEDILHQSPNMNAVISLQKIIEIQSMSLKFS
Sequence of Histone deacetylase 4 (P56524 whole entry): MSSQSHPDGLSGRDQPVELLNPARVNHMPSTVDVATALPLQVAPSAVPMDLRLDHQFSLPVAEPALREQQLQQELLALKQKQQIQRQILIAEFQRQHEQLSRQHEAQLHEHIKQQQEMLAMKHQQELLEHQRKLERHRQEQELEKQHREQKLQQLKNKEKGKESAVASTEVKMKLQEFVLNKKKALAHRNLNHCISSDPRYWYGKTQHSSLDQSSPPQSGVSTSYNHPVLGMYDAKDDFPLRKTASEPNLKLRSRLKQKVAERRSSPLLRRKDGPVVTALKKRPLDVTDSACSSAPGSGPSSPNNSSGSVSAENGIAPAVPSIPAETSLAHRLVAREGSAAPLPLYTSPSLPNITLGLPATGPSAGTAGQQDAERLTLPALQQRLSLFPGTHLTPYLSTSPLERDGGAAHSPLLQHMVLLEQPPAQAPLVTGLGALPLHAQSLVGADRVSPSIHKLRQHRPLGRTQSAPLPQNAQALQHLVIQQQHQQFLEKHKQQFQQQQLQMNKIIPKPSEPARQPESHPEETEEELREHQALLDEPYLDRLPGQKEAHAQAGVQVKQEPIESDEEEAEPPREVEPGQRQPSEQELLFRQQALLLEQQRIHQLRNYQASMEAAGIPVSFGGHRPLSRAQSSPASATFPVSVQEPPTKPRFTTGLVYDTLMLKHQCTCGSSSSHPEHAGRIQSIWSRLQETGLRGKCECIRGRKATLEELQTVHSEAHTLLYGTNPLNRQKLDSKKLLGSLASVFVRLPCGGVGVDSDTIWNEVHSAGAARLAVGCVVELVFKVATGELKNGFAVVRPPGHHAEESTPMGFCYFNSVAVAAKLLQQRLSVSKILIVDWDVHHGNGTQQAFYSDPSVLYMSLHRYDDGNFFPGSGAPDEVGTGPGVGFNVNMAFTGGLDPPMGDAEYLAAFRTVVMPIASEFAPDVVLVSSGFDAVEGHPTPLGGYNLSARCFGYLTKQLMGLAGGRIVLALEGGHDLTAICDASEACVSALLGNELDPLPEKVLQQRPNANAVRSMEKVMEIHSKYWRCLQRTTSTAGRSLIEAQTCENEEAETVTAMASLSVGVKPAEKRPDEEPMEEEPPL

CC(=O)Nc1ccc(C(=O)Nc2ccc(F)cc2N)cc1 [US12128018, Compound I-1]
> 30 µM: all assays above
